{"source": "patent US8404751B2", "about": "“Subunguicide, and method for treating onychomycosis” (Hallux, Inc., priority 2002, dated 2013)", "assay": "Solubility of terbinafine HCl in isopropyl alcohol", "assay_type": "physicochemical", "method": "Terbinafine free base was prepared by adding 2.0 g of terbinafine HCl to 8.0 g of isopropyl alcohol (IPA) and 4.0 g Dowex Marathon A OH ion exchange resin. This resin exchanges OH^− for Cl^− and was washed with IPA prior to use. With the Cl^− removed from solution, the free base formed and the terbinafine went into solution within 5-10 minutes. (Terbinafine HCl is soluble in IPA up to 3.7%.) The reaction with the resin was run for 4 hours. Presence of the free base was confirmed by adding a drop of this IPA solution into water and measuring pH with a color strip. Adding the IPA solution caused the water pH to increase approximately one unit. The resin added OH^− to the solution, which reacted with H^+ and increased the water content. Excess water was removed by storing the terbinafine free base solution over molecular sieves for one week.", "note": "Counter-ions that a name gives are not always drawn.", "data": [{"smiles": "CN(C/C=C/C#CC(C)(C)C)Cc1cccc2ccccc12", "note": "[Terbinafine HCl, terbinafine HCl]", "values": [{"measurement": "soluble in IPA up to", "value": 3.7, "unit": "%"}]}]}
